Assay results taken from paper PMC12892976, “Alkylation-based optimization of antifungal FPPS inhibitors yields a potent, broad-spectrum lipophilic zoledronate derivative” (mBio, 2025).
Values after ≈ are worked out from the molar mass of the structure shown. Read-outs that look alike come from different tables or passages of the source.

Tests used:
[1] = test system: Saccharomyces cerevisiae; assay: MIC/MFC broth microdilution (CLSI); type: cell-based; conditions: Saccharomyces cerevisiae S288c
Method: (§1) Antifungal susceptibility was determined by broth microdilution according to the CLSI guidelines described in M27-Ed4 ([16]). […] MFC was determined by back-plating drug-treated cultures from MIC broths onto SDA plates. The MFC was defined as the lowest concentration from which no colonies could be cultured.

[2] = test system: Candida albicans; assay: MIC/MFC broth microdilution (CLSI); type: cell-based; conditions: Candida albicans SC5314
Method: as §1

[3] = test system: Cryptococcus deuterogattii; assay: checkerboard drug interaction (FICI, MICc);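 as to all read-outs here: simplified diagonal checkerboard screen pairing antifungal drugs with FPPS inhibitors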; type: cell-based; conditions: C. deuterogattii; for INH FD (MIC-MICc fold decrease): fold decrease of inhibitor MIC
Method: (§2) Drug interactions between antifungals and FPPS inhibitors were investigated using a simplified checkerboard diagonal screening method ([45]). […] FICIs were determined according to the Loewe additivity model ([17]).

[4] = test system: Cryptococcus neoformans; assay: checkerboard drug interaction (FICI, MICc);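 as to all read-outs here: antifungal plus FPPS inhibitor pairs tested against Cryptococcus neoformans by simplified diagonal checkerboard screening, FICI computed under the Loewe additivity model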; type: cell-based; conditions: C. neoformans; for INH FD (MIC-MICc fold decrease): fold decrease of inhibitor MIC
Method: as §2

[5] = test system: Saccharomyces cerevisiae; assay: checkerboard drug interaction (FICI, MICc); type: cell-based; set-up: INH MICc / INH MICc (ITR:INH) / INH MICc (KET:INH) / INH MICc (FLC:INH): unit not given beside the values;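 also: simplified diagonal checkerboard screen pairing antifungals with FPPS inhibitors, FICI calculated under the Loewe additivity model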
[6] = test system: Candida glabrata; assay: checkerboard drug interaction (FICI, MICc);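 as to all read-outs here: simplified diagonal checkerboard screen pairing antifungals with FPPS inhibitors, FICI calculated under the Loewe additivity model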; type: cell-based; conditions: C. glabrata; for INH FD (MIC-MICc fold decrease): fold decrease of inhibitor MIC
Method: as §2

[7] = test system: Candida albicans; assay: checkerboard drug interaction (FICI, MICc);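 as to all read-outs here: antifungal plus FPPS inhibitor combinations on Candida albicans tested by a simplified diagonal checkerboard screen, with FICI calculated under the Loewe additivity model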; type: cell-based; conditions: C. albicans; for INH FD (MIC-MICc fold decrease): fold decrease of inhibitor MIC
Method: as §2

[8] = test system: Aspergillus flavus; assay: checkerboard drug interaction (FICI, MICc);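 also: simplified diagonal checkerboard screen pairing azole antifungals with FPPS inhibitors, FICI calculated under the Loewe additivity model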; type: cell-based; set-up: INH MICc (KET:INH) / INH MICc (FLC:INH): unit not given beside the values; conditions: A. flavus
[9] = test system: Aspergillus fumigatus; assay: checkerboard drug interaction (FICI, MICc); type: cell-based;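 also: simplified diagonal checkerboard screen pairing antifungals with FPPS inhibitors against Aspergillus fumigatus, with FICI calculated under the Loewe additivity model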
Method: as §2

[10] = test system: Trichophyton rubrum; assay: checkerboard drug interaction (FICI, MICc);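 also: simplified diagonal checkerboard screen pairing azole antifungals with FPPS inhibitors, FICI calculated under the Loewe additivity model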; type: cell-based; conditions: T. rubrum
Method: as §2

[11] = test system: HEK-293T cells; assay: MTT reduction cytotoxicity assay; type: cell-based; conditions: Homo sapiens, HEK-293T, 72 h, MTT, 72 h
[12] = test system: eight fungal species; assay: MIC/MFC summary across the eight fungal species of Table 1; type: cell-based
Method: The antifungal activity of these compounds was evaluated according to CLSI guidelines ([16]).

[13] = test system: eight fungal species; assay: checkerboard interaction with azoles, summary across the eight species; type: cell-based; conditions: geometric mean MIC in combination with azoles
From the text: Synergy between lipophilic FPPS inhibitors and azole antifungals was investigated by determining the fractional inhibitory concentration index (FICI) (Fig. 2; Table S1 Fig. S1) ([17]). […]. Derivatives PLA9 and 11, and PDA9, 11, and 12 antagonized azoles in C. albicans, C. neoformans, and C. deuterogattii, yet were largely synergistic in C. glabrata and S. cerevisiae. […].

[14] = test system: Cryptococcus deuterogattii; assay: MIC/MFC broth microdilution (CLSI); conditions: Cryptococcus deuterogattii;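 also: broth microdilution per CLSI M27-Ed4. MFC is the lowest concentration yielding no colonies when MIC broths are subcultured onto SDA plates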
Method: as §1

[15] = test system: Cryptococcus neoformans; assay: MIC/MFC broth microdilution (CLSI); conditions: Cryptococcus neoformans;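 also: susceptibility testing followed the CLSI M27-Ed4 broth microdilution document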
Method: as §1

[16] = test system: Candida glabrata; assay: MIC/MFC broth microdilution (CLSI); conditions: Nakaseomyces glabratus, CBS138;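 also: broth microdilution following CLSI M27-Ed4, MFC taken as the lowest drug level yielding no growth once MIC wells were subcultured on SDA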
Method: as §1

[17] = test system: Aspergillus flavus; assay: MIC/MFC broth microdilution (CLSI); conditions: ATCC204304
Method: as §1

[18] = test system: Aspergillus fumigatus; assay: MIC/MFC broth microdilution (CLSI); conditions: ATCC204305
Method: as §1

[19] = test system: Trichophyton rubrum; assay: MIC/MFC broth microdilution (CLSI); conditions: Trichophyton rubrum
Method: as §1

[20] = FLC:INH combination, MIC of the inhibitor in combination with FLC
[21] = FLC:INH combination, fold decrease of FLC MIC
[22] = ITR:INH combination, MIC of the inhibitor in combination with ITR
[23] = ITR:INH combination, fold decrease of ITR MIC
[24] = KET:INH combination, MIC of the inhibitor in combination with KET
[25] = KET:INH combination, fold decrease of KET MIC
[26] = Fractional Inhibitory Concentration Index, fluconazole + inhibitor
[27] = Fractional Inhibitory Concentration Index, itraconazole + inhibitor
[28] = Fractional Inhibitory Concentration Index, ketoconazole + inhibitor
[29] = MIC of the inhibitor in combination with fluconazole
[30] = MIC of the inhibitor in combination with itraconazole
[31] = MIC of the inhibitor in combination with ketoconazole
[32] = MIC-MICc fold decrease of fluconazole, negative = increase
[33] = MIC-MICc fold decrease of itraconazole, negative = increase
[34] = MIC-MICc fold decrease of ketoconazole, negative = increase
[35] = MIC-MICc fold decrease of the inhibitor, with fluconazole
[36] = MIC-MICc fold decrease of the inhibitor, with itraconazole
[37] = MIC-MICc fold decrease of the inhibitor, with ketoconazole

SMILES: CCCCCCCCCCCCN1CCC[C@H]1C(=O)N[C@H](CC(=O)O)C(=O)O [PDA12]
- MFC [1]: > 128 µg/mL
- MIC [1]: > 128 µg/mL
- MFC [2]: > 128 µg/mL
- MIC [2]: > 128 µg/mL
- FICI ([3]; FLC:INH combination): 2.5
- INH MICc [3, 20]: 128
- FLC FD (MIC-MICc fold decrease) [3, 21]: -2
- INH FD (MIC-MICc fold decrease) ([3]; FLC:INH combination): 2
- FICI ([3]; ITR:INH combination): ≥4
- INH MICc [3, 22]: 128
- ITR FD (MIC-MICc fold decrease) [3, 23]: -4
- INH FD (MIC-MICc fold decrease) ([3]; ITR:INH combination): 2
- FICI ([3]; KET:INH combination): 0.5
- INH MICc [3, 24]: 64
- KET FD (MIC-MICc fold decrease) [3, 25]: 4
- INH FD (MIC-MICc fold decrease) ([3]; KET:INH combination): 4
- FICI ([4]; FLC:INH combination): ≥4
- INH MICc [4, 20]: 128
- FLC FD (MIC-MICc fold decrease) [4, 21]: -4
- INH FD (MIC-MICc fold decrease) ([4]; FLC:INH combination): 2
- FICI ([4]; ITR:INH combination): 2.25
- INH MICc [4, 22]: 64
- ITR FD (MIC-MICc fold decrease) [4, 23]: -2
- INH FD (MIC-MICc fold decrease) ([4]; ITR:INH combination): 4
- FICI ([4]; KET:INH combination): ≥4
- INH MICc [4, 24]: 128
- KET FD (MIC-MICc fold decrease) [4, 25]: -4
- INH FD (MIC-MICc fold decrease) ([4]; KET:INH combination): 2
- FICI (FLC:INH) [5, 26]: 0.38
- FICI (ITR:INH) [5, 27]: 0.63
- FICI (KET:INH) [5, 28]: 0.31
- INH MICc (FLC:INH) [5, 29]: 64
- INH MICc (ITR:INH) [5, 30]: 32
- INH MICc (KET:INH) [5, 31]: 16
- FLC FD (FLC:INH) [5, 32]: 8
- ITR FD (ITR:INH) [5, 33]: 2
- KET FD (KET:INH) [5, 34]: 4
- INH FD (FLC:INH) [5, 35]: 4
- INH FD (ITR:INH) [5, 36]: 8
- INH FD (KET:INH) [5, 37]: 16
- FICI ([6]; FLC:INH combination): 0.75
- INH MICc [6, 20]: 8
- FLC FD (MIC-MICc fold decrease) [6, 21]: 2
- INH FD (MIC-MICc fold decrease) ([6]; FLC:INH combination): 32
- FICI ([6]; ITR:INH combination): 0.31
- INH MICc [6, 22]: 2
- ITR FD (MIC-MICc fold decrease) [6, 23]: 4
- INH FD (MIC-MICc fold decrease) ([6]; ITR:INH combination): 128
- FICI ([6]; KET:INH combination): 0.31
- INH MICc [6, 24]: 2
- KET FD (MIC-MICc fold decrease) [6, 25]: 4
- INH FD (MIC-MICc fold decrease) ([6]; KET:INH combination): 128
- FICI ([7]; FLC:INH combination): 2.06
- INH MICc [7, 20]: 16
- FLC FD (MIC-MICc fold decrease) [7, 21]: -2
- INH FD (MIC-MICc fold decrease) ([7]; FLC:INH combination): 16
- FICI ([7]; ITR:INH combination): ≥4
- INH MICc [7, 22]: 64
- ITR FD (MIC-MICc fold decrease) [7, 23]: < -4
- INH FD (MIC-MICc fold decrease) ([7]; ITR:INH combination): 4
- FICI ([7]; KET:INH combination): ≥4
- INH MICc [7, 24]: 32
- KET FD (MIC-MICc fold decrease) [7, 25]: -4
- INH FD (MIC-MICc fold decrease) ([7]; KET:INH combination): 8
- FICI (FLC:INH) [8, 26]: 2
- FICI (ITR:INH) [8, 27]: 1
- FICI (KET:INH) [8, 28]: 1
- INH MICc (FLC:INH) [8, 29]: 256
- INH MICc (ITR:INH) [8, 30]: 128
- INH MICc (KET:INH) [8, 31]: 128
- FLC FD (FLC:INH) [8, 32]: 1
- ITR FD (ITR:INH) [8, 33]: 2
- KET FD (KET:INH) [8, 34]: 2
- INH FD (FLC:INH) [8, 35]: 1
- INH FD (ITR:INH) [8, 36]: 2
- INH FD (KET:INH) [8, 37]: 2
- FICI (FLC:INH) [9, 26]: 2
- FICI (ITR:INH) [9, 27]: 0.51
- FICI (KET:INH) [9, 28]: 1.5
- INH MICc (FLC:INH) [9, 29]: 256
- INH MICc (ITR:INH) [9, 30]: 2
- INH MICc (KET:INH) [9, 31]: 128
- FLC FD (FLC:INH) [9, 32]: 1
- ITR FD (ITR:INH) [9, 33]: 2
- KET FD (KET:INH) [9, 34]: 1
- INH FD (FLC:INH) [9, 35]: 1
- INH FD (ITR:INH) [9, 36]: 128
- INH FD (KET:INH) [9, 37]: 2
- FICI (FLC:INH) [10, 26]: ≥4
- FICI (ITR:INH) [10, 27]: 3
- FICI (KET:INH) [10, 28]: ≥4
- INH MICc (FLC:INH) [10, 29]: 256
- INH MICc (ITR:INH) [10, 30]: 256
- INH MICc (KET:INH) [10, 31]: 256
- FLC FD (FLC:INH) [10, 32]: -2
- ITR FD (ITR:INH) [10, 33]: 1
- KET FD (KET:INH) [10, 34]: -2
- INH FD (FLC:INH) [10, 35]: -2
- INH FD (ITR:INH) [10, 36]: -2
- INH FD (KET:INH) [10, 37]: -2
- IC50 ([11]; HEK-293T cells, read-out: IC50): 168 µg/mL (≈ 421 µM)
- IC50 ([11]; read-out: HEK IC50): 168 µg/mL (≈ 421 µM)
- MFC ([12]; across eight species, read-out: Geometric mean MFC): > 128 µg/mL
- MIC ([12]; geometric mean across eight species, read-out: GM fungal MIC): 235 µg/mL (≈ 589 µM)
- MIC ([12]; read-out: Geometric mean MIC): 235 µg/mL (≈ 589 µM)
- GM fungal MICc [13]: 52.3
- MFC [14]: > 128 µg/mL
- MIC [14]: > 128 µg/mL
- MFC [15]: > 128 µg/mL
- MIC [15]: > 128 µg/mL
- MFC [16]: > 128 µg/mL
- MIC [16]: > 128 µg/mL
- MFC [17]: > 128 µg/mL
- MIC [17]: > 128 µg/mL
- MFC [18]: > 128 µg/mL
- MIC [18]: > 128 µg/mL
- MFC [19]: > 128 µg/mL
- MIC [19]: 128 µg/mL (≈ 321 µM)
